Experiment in all cases: Bacterial susceptibility testing, MIC by broth microdilution (CLSI)
Assay type in all cases: cell-based
On the technique in general: Dilution methods test growth across graded concentrations, often in twofold steps.

The subject of one assay is P. aeruginosa 209 PAO1. The note with it: Pseudomonas aeruginosa, 35° C., 18-24 h, read-out: MIC (μg/mL) P. aeruginosa 209 PAO1. As to the method:
(§1) Minimal inhibitory concentrations (MIC) were determined by the broth microdilution method in accordance with the Clinical and Laboratory Standards Institute (CLSI) guidelines. In brief, organism suspensions were adjusted to a final inoculum between 3×10^5 and 7×10^5 colony-forming units (CFU)/mL. Drug dilutions and inocula were made in sterile, cation adjusted Mueller-Hinton Broth (Beckton Dickinson). In wells, an inoculum volume of 100 μL was mixed to 2 μL of DMSO with 2-fold serial dilutions of drug. All inoculated microdilution trays were incubated in ambient air at 35° C. for 18-24 h. Following incubation, the lowest concentration of the drug that prevented visible growth (OD600 nm<0.05) was recorded as the MIC. Performance of the assay was monitored by the use of laboratory quality-control strains and compounds with defined MIC spectrum, in accordance with CLSI guidelines

In the next assay the test system is K. pneumoniae ATCC13883. As to conditions: Klebsiella pneumoniae, 35° C., 18-24 h, read-out: MIC (μg/mL) K. pneumoniae ATCC13883. As to the method: as §1
In the next assay the test system is P. aeruginosa ATCC27835. As to conditions: Pseudomonas aeruginosa, 35° C., 18-24 h, read-out: MIC (μg/mL) P. aeruginosa ATCC27835. Here is the method:
as §1

SMILES strings stand for the structures. Values after ≈ are worked out from the molar mass of the structure shown.

Regarding `C[C@H](O)c1nccn1CC#Cc1ccc(-c2ccc(C3CC(NCC(=N)N)C3)cc2)cc1` (stereo partly drawn) [Compound 25, (S)-2-((3-(4′-(3-(2-(1-hydroxyethyl)-1H-imidazol-1-yl)prop-1-yn-1-yl)-[1,1′-biphenyl]-4-yl)cyclobutyl)amino)acetimidamide], the MIC in the assay on P. aeruginosa 209 PAO1 came out at 2 µg/mL (≈ 4.68 µM); in the assay with K. pneumoniae ATCC13883, 0.5 µg/mL (≈ 1.17 µM); in the assay on P. aeruginosa ATCC27835, 4 µg/mL (≈ 9.36 µM).

In the case of `C[C@H](O)c1nccn1CC#Cc1ccc(-c2ccc(C3CC(NCC(=O)O)C3)cc2)cc1` (stereo partly drawn) [Compound 26, (S)-(3-(4′-(3-(2-(1-hydroxyethyl)-1H-imidazol-1-yl)prop-1-yn-1-yl)-[1,1′-biphenyl]-4-yl)cyclobutyl)glycine], the MIC in the assay with P. aeruginosa 209 PAO1, with K. pneumoniae ATCC13883 and in the assay on P. aeruginosa ATCC27835 was 4 µg/mL (≈ 9.31 µM) in each case.

As for `C[C@H](O)c1nccn1CC#Cc1ccc(-c2ccc(C3CC(NCc4cocn4)C3)cc2)cc1` (stereo partly drawn) [Compound 27, (S)-1-(1-(3-(4′-(3-((oxazol-4-ylmethyl)amino)cyclobutyl)-[1,1′-biphenyl]-4-yl)prop-2-yn-1-yl)-1H-imidazol-2-yl)ethan-1-ol], the MIC stood at 2 µg/mL (≈ 4.42 µM) in the assay with P. aeruginosa 209 PAO1, 0.5 µg/mL (≈ 1.1 µM) in the assay with K. pneumoniae ATCC13883 and 4 µg/mL (≈ 8.84 µM) in the assay on P. aeruginosa ATCC27835.

Take `C[C@H](O)c1nccn1[C@@H](C#Cc1ccc(-c2ccc(C3CC(NCC#N)C3)cc2)cc1)CO` (stereo partly drawn) [Compound 28, 2-((3-(4′-((S)-4-hydroxy-3-(2-((S)-1-hydroxyethyl)-1H-imidazol-1-yl)but-1-yn-1-yl)-[1,1′-biphenyl]-4-yl)cyclobutyl)amino)acetonitrile]: the MIC in the assay with P. aeruginosa 209 PAO1 is 2 µg/mL (≈ 4.54 µM); in the assay with K. pneumoniae ATCC13883, 0.5 µg/mL (≈ 1.13 µM); in the assay with P. aeruginosa ATCC27835 it was 4 µg/mL (≈ 9.08 µM).

In the case of `C[C@H](O)c1nccn1[C@@H](C#Cc1ccc(-c2ccc(C3CC(NCc4ncon4)C3)cc2)cc1)CO` (stereo partly drawn) [Compound 29, (S)-4-(4′-(3-(((1,2,4-oxadiazol-3-yl)methyl)amino)cyclobutyl)-[1,1′-biphenyl]-4-yl)-2-(2-((S)-1-hydroxyethyl)-1H-imidazol-1-yl)but-3-yn-1-ol], the MIC in the assay on P. aeruginosa 209 PAO1 was found to be 2 µg/mL (≈ 4.14 µM); in the assay with K. pneumoniae ATCC13883, 0.5 µg/mL (≈ 1.03 µM); in the assay on P. aeruginosa ATCC27835 it was 2 µg/mL (≈ 4.14 µM).

On to `C[C@H](O)c1nccn1[C@@H](C#Cc1ccc(-c2ccc(C3CC(O)C3)cc2)cc1)CO` (stereo partly drawn) [Compound 30, 3-(4′-((S)-4-hydroxy-3-(2-((S)-1-hydroxyethyl)-1H-imidazol-1-yl)but-1-yn-1-yl)-[1,1′-biphenyl]-4-yl)cyclobutan-1-ol], for which the MIC was 0.5 µg/mL (≈ 1.24 µM) with P. aeruginosa 209 PAO1, 0.5 µg/mL (≈ 1.24 µM) in the assay with K. pneumoniae ATCC13883 and 2 µg/mL (≈ 4.97 µM) with P. aeruginosa ATCC27835.

Turning to `C[C@H](O)c1nccn1[C@@H](C#Cc1ccc(-c2ccc(C3CC(NCC(F)F)C3)cc2)cc1)CO` (stereo partly drawn) [Compound 31, (S)-4-(4′-(3-((2,2-difluoroethyl)amino)cyclobutyl)-[1,1′-biphenyl]-4-yl)-2-(2-((S)-1-hydroxyethyl)-1H-imidazol-1-yl)but-3-yn-1-ol], the MIC amounted to 2 µg/mL (≈ 4.3 µM) in the assay with P. aeruginosa 209 PAO1, 0.25 µg/mL (≈ 0.537 µM) with K. pneumoniae ATCC13883 and 4 µg/mL (≈ 8.59 µM) in the assay with P. aeruginosa ATCC27835.

On to `C[C@H](O)c1nccn1[C@@H](C#Cc1ccc(-c2ccc(C3CC(NCCC#N)C3)cc2)cc1)CO` (stereo partly drawn) [Compound 32, 3-((3-(4′-((S)-4-hydroxy-3-(2-((S)-1-hydroxyethyl)-1H-imidazol-1-yl)but-1-yn-1-yl)-[1,1′-biphenyl]-4-yl)cyclobutyl)amino)propanenitrile], for which the MIC with P. aeruginosa 209 PAO1 is 1 µg/mL (≈ 2.2 µM); with K. pneumoniae ATCC13883 it was 0.5 µg/mL (≈ 1.1 µM); with P. aeruginosa ATCC27835, 4 µg/mL (≈ 8.8 µM).

As for `C[C@H](O)c1nccn1[C@@H](C#Cc1ccc(-c2ccc(C3CC(NC(C#N)CO)C3)cc2)cc1)CO` (stereo partly drawn) [Compound 33, 3-hydroxy-2-((3-(4′-((S)-4-hydroxy-3-(2-((S)-1-hydroxyethyl)-1H-imidazol-1-yl)but-1-yn-1-yl)-[1,1′-biphenyl]-4-yl)cyclobutyl)amino)propanenitrile], the MIC with P. aeruginosa 209 PAO1 came out at 2 µg/mL (≈ 4.25 µM); in the assay on K. pneumoniae ATCC13883, 4 µg/mL (≈ 8.5 µM); with P. aeruginosa ATCC27835, 2 µg/mL (≈ 4.25 µM).

For the origin of these results see US20240166609A1, “ANTIBACTERIAL COMPOUNDS” (BLACKSMITH MEDICINES, INC., priority 2021, published 2024).
